This note sets out measurements from US20230355678A1, “METHODS FOR IMPROVING T CELL EFFICACY” (IMMATICS US, INC., priority 2022, published 2023).

Structures are written as SMILES. Entries after “also recorded” stand apart in the source; their conditions may differ. Like-named read-outs stand apart in the source and are kept apart here.

The subject of data set [1] is transduced T cells. Nature of the data set: Memory T cell phenotype by flow cytometry. The format is cell-based. The settings on record: for CD28+CD62L+ cells (Tcm-like cells): FIG. 5; for % Tnaïve cells / TemRA cells: vs other treatments and control (no HDACi), FIG. 4. On the procedure: Phenotypes of transduced T cells treated with different HDACi were determined by flow cytometry gated on CD3+CD8+ TCR+ cells. […] No major difference in immune-checkpoint-inhibitor (ICI) marker expression was observed.
Using Panobinostat as example, phenotypes of T cell products prepared by Panobinostat treatment on Day 0 (activation), Day 1 (transduction), or Day 2 (feeding) were determined.
(§1) On Day 1, the activated CD4/CD8-selected cells were transduced with Lentiviral vectors expressing a target-specific exogenous TCR. On Day 2, the culture media were removed and the transduced cells were fed with fresh media in the absence of Panobinostat, SAHA+IL-21, and AKTi VIII and in the presence of cytokines, for cell expansion. On Day 7-Day 10, cells were harvested and cryopreserved for harvest metrics, phenotypic analysis, and functional studies including Incucyte tumor serial killing assay, cytokine production, and exhaustion analysis. To test the effects of TKi, e.g., dasatinib, on T cell products, dasatinib was added on Day 2 (5 nM) and Day 5 (10 nM) during feeding and expansion.
(§2) On Day 0, thawed and rested CD4/CD8-selected cells were activated in the presence of anti-CD3/anti-CD28 antibodies. On Day 1, the activated CD4/CD8-selected cells were transduced with Lentiviral vectors expressing a target-specific exogenous TCR and exogenous CD8 molecules. On Day 2, the culture media were removed and the transduced cells were fed with fresh media containing cytokines for cell expansion. Dasatinib was added on Day 2 or on Day 5. On Day 7-Day 10, cells were harvested and cryopreserved for harvest metrics, phenotypic analysis, and functional studies including Incucyte tumor serial killing assay, cytokine production, and exhaustion analysis.

Data set [2] concerns transduced T cells. Briefly: Transduction efficiency by flow cytometry gated on CD3+CD8+ TCR+ cells. The class given is cell-based. Conditions: for % CD8+ TCR+ T cells (transduction efficiency) / total number of T cell products with CD8+ TCR+ T cells: vs untreated control; for % CD8+ T cells / % CD8+ TCR+ cells (transduction efficiency): FIG. 3. Set-up: % CD8+ T cells / % CD8+ TCR+ cells (transduction efficiency): unit of the concentration uncertain. On the procedure:
Transduction efficiency of transduced T cells treated with different HDACi were determined by flow cytometry gated on CD3+CD8+ TCR+ cells.
as §1, §2
On the technique in general: Flow cytometry measures light scatter and fluorescence of single cells or particles in a stream.

For data set [3], the system named is UACC257. Briefly: Tumor cell killing by T cell products (Incucyte tumor serial killing assay). The format is cell-based. The settings on record: expansion in the presence of dasatinib; TCR normalized T cells:UACC257-RFP=3:1; n=3 healthy donors; vs Panobinostat or AKTi VIII and controls; FIG. 28A, 29A-C.
Source text: as §1
T cell products prepared by activating T cells obtained from three patients (n=3) in the presence of Panobinostat, SAHA+IL-21, or AKTi VIII were compared with regards to tumor killing activity when contacting target cells, e.g., UACC257, which express a report gene encoding red florescent protein (RFP), with E:T=3:1. TCR-positive cells were normalized.
(n=3 healthy donors; TCR normalized T cells:UACC257-iRFP=3:1).

Data set [4] relates to transduced T cells. Briefly: Exhaustion / inhibitory receptor (ICI) marker expression of T cell products. The format is cell-based. On the procedure: The sustained expression of multiple inhibitory receptors may be the hallmark of exhausted T cells. Common to both CD4+ and CD8+ exhausted T cells may be the surface expression of multiple inhibitory receptors, e.g., 2B4, 4-1BB, CD39, CD69, LAG3, PD-1, TIGIT, and TIM3. Expression of these inhibitory receptors in T cell products prepared by Panobinostat treatment at different time was determined. […] Panobinostat treatment on Day 0 increased % PD-1+ cells in T cell products as compared with other treatments and control.
CD39 may be considered as a marker for exhausted T cells, e.g., CD8+ T cells, in cancer. CD69 is a membrane-bound, type II C-lectin receptor and may be considered as an early marker of lymphocyte activation due to its rapid appearance on the surface of the plasma membrane after stimulation. […] Dasatinib may have little effect on % of terminally differentiated CD39-positive state (CD39+CD69+) and % of CD69+ state in T cell products.
Common to both CD4+ and CD8+ exhausted T cells may be the surface expression of multiple inhibitory receptors including 2B4, 4-1BB, CD39, CD69, LAG3, PD-1, TIGIT, and TIM-3.

The subject of data set [5] is transduced T cells. Briefly: Fold expansion and manufacturing metrics of T cell products. The class given is cell-based. Details: fold expansion: unit of the concentration uncertain. Conditions: for fold expansion of T cell products: vs untreated control; for fold expansion: FIG. 2B. On the procedure:
(§3) (DMSO low concentration=low volume=0.00001%; vehicle control for Panobinostat at low concentration (1 nM); DMSO high concentration=high volume=1.5%; vehicle control for valproic acid at high concentration (1.5 mM); all except Na butyrate (water) were dissolved in DMSO)
as §1, §2

Data set [6] relates to transduced T cells. Briefly: Viability of T cell products. Set-up: viability of transduced T cells: dose or concentration left out as unconfirmed. The settings on record: for viability of transduced T cells: Day 7, vs controls (no HDACi and DMSO), FIG. 2A. On the procedure:
as §3

Where [7] appears, read: dasatinib (5 nM) on Day 2 compared with dasatinib (10 nM) on Day 5, FIG. 25A.
Setting [8] is: dasatinib (10 nM) on Day 2 or Day 5, FIG. 23B.
The mark [9] stands for this setting: dasatinib added Day 2 (5 nM) and Day 5 (10 nM) during feeding and expansion, vs untreated control, FIG. 25A.
Setting [10] is: dasatinib (10 nM) on Day 2 or Day 5, vs untreated control, FIG. 23C.

Consider `O=C(CCCCCCNC(=O)c1cnc(N(c2ccccc2)c2ccccc2Cl)nc1)NO` [ACY-241], for which, in data set [1] (100 nM), the “CD28+CD62L+ cells (Tcm-like cells)” value is given as “more CD28+CD62L+ cells; also recorded: increased”, the “% Tnaïve cells” value is “most % Tnaïve cells; also recorded: most naïve cells” and the TemRA cells result is “least TemRA cells”.

For `Cc1nc(Nc2ncc(C(=O)Nc3c(C)cccc3Cl)s2)cc(N2CCN(CCO)CC2)n1` [Dasatinib, dasatinib], the phenotype result in data set [1] (Dasatinib-treated cells vs untreated cells) was “Better Phenotype”. For the same compound, the “Ranking of T cell products from the most Tnaive and the least TemRA to the least Tnaive and the most TemRA” value in data set [1] (comparative study, FIG. 25A-B) was “dasatinib (5 nM) on Day 2 >dasatinib (10 nM) on Day 5 >AKTi VIII >Panobinostat”. The results for the “% TemRA in T cell products” value in data set [1] (setting [7]) and in data set [1] (setting [9]) were “less” and “decreased”, respectively. Besides, the “% Tnaive in T cell products” value in data set [1] (setting [7]) is “more”; in data set [1] (setting [8]) it was “less”; in data set [1] (setting [9]), “increased”. In addition, the “expression of CD27” value in data set [1] (dasatinib (10 nM) on Day 2 or Day 5, FIG. 23A) is “Little effect”. The “% of differentiated TemRA” value in data set [1] (setting [8]) is recorded as “less”. Also, the “% CD62L+ and % CD28+CD62L+ cells in T cell products” value in data set [1] (dasatinib (10 nM) on Day 2 or Day 5, vs Panobinostat, SAHA+IL-21, AKTi VIII or untreated control, FIG. 26A) is given as “increased”. In addition, the “MFI of CD27 and CD62L in T cell products” value in data set [1] (dasatinib (10 nM) on Day 2 or Day 5, vs Panobinostat, SAHA+IL-21, AKTi VIII or untreated control, FIG. 26B) is “increased”. Further, the “expression of Tnaive and Tcm markers CD28 and CD62L” value in data set [1] (dasatinib (10 nM) on Day 2 or Day 5, vs untreated control, FIG. 23A) was “increased”. In addition, in data set [1] (dasatinib added Day 2 (5 nM) and Day 5 (10 nM) during feeding and expansion, vs untreated control, FIG. 25B), the “number of Tnaive in T cell products” value is recorded as “increased”. Further, the “% CD8+ TCR+ T cells (transduction efficiency)” value in data set [2] (dasatinib added Day 2 (5 nM) and Day 5 (10 nM) during feeding and expansion, FIG. 24B) is given as “higher”; in data set [2] (dasatinib on Day 2 (10 nM or 100 nM) or Day 5 (10 nM or 100 nM), FIG. 22B), “higher”. In addition, the “total number of T cell products with CD8+ TCR+ T cells” value is “little effect” in data set [2] (dasatinib added Day 2 (5 nM) and Day 5 (10 nM) during feeding and expansion, FIG. 24C); “little effect” in data set [2] (expansion in the presence of dasatinib, FIG. 22C). Further, the tumor killing activity result in data set [3] is “significantly better tumor killing activity”. Besides, in data set [4] (dasatinib (10 nM) on Day 2 or Day 5, vs Panobinostat or AKTi VIII or untreated control, FIG. 27A), the “% 2B4+, % Cd69+, and % TIM-3+ cells in T cell products” value is “decreased”. For the same compound, the “MFI of 4-1BB and TIM-3 in T cell products” value in data set [4] (dasatinib (10 nM) on Day 2 or Day 5, vs Panobinostat or AKTi VIII or untreated control, FIG. 27B) is given as “decreased”. Besides, the “% of T cell products with differentiated CD39+ state (CD39+)” value in data set [4] (setting [10]) is on record as “slightly higher”. In addition, the “% of T cell products with memory-progenitor CD39− negative stem-like phenotype (CD39−CD69−)” value in data set [4] (setting [10]) is “slightly less”. In addition, in data set [4] (dasatinib, FIG. 23C), the “% of terminally differentiated CD39-positive state (CD39+CD69+) and % of CD69+ state” value is on record as “little effect”. The “Manufacturing metrics (expansion, viability, yield)” value in data set [5] (Acceptable range ≥Control, Table 5 summary grade) is listed as “=”. For the same compound, the “fold expansion of T cell products” value in data set [5] (dasatinib added Day 2 (5 nM) and Day 5 (10 nM) during feeding and expansion, FIG. 24A) is “little effect”; in data set [5] (dasatinib on Day 2 (10 nM or 100 nM) or Day 5 (10 nM or 100 nM), FIG. 22A), “little effect”.

With `Nc1ccccc1NC(=O)c1ccc(CNC(=O)OCc2cccnc2)cc1` [Entinostat, entinostat], in data set [6], the “toxicity to T cells” value is recorded as “highly toxic” and the “viability of transduced T cells” value is reported as “reduced T cell viability”. In data set [2] (2 (unit uncertain)), the “% CD8+ T cells” value is given as “reduced % CD8+ T cells” and the “% CD8+ TCR+ cells (transduction efficiency)” value was “reduced % CD8+ TCR+ cells”. Moreover, in data set [5] (2 (unit uncertain)), the fold expansion result is reported as “reduced fold expansion”.

As to `O=C(CCCCCCC(=O)Nc1ccccc1)NO` [SAHA, suberanilohydroxamic acid], in data set [1] (50 nM), the “CD28+CD62L+ cells (Tcm-like cells)” value was “more CD28+CD62L+ cells; also recorded: increased”, the “% Tnaïve cells” value is recorded as “most % Tnaïve cells; also recorded: most naïve cells” and the TemRA cells result is given as “least TemRA cells”.

Take `CCCC(=O)[O-].[Na+]` [Sodium butyrate]: in data set [6], the “viability of transduced T cells” value is given as “reduced T cell viability”. Moreover, the “toxicity to T cells” value in data set [6] (summary of Example 2) is “highly toxic”. Moreover, in data set [2] (2 (unit uncertain)), the “% CD8+ T cells” value was “reduced % CD8+ T cells” and the “% CD8+ TCR+ cells (transduction efficiency)” value was “reduced % CD8+ TCR+ cells”. The fold expansion result in data set [5] (2 (unit uncertain)) is listed as “reduced fold expansion”.

With `CCCC(CCC)C(=O)O` [valproic acid], the “toxicity to T cells” value in data set [6] is on record as “highly toxic”. Moreover, the “% CD8+ T cells” value in data set [2] (1.5 (unit uncertain)) is reported as “reduced % CD8+ T cells”. Also, the fold expansion entry in data set [5] (1.5 (unit uncertain)) is recorded as “reduced fold expansion”.
